Measurements published in patent US11466019B2, “Triazolo[4,5-d] pyramidine derivatives and their use as purine receptor antagonists” (Vernalis (R&D) Limited, priority 2008, dated 2022).

Key:
[1] = target: T1, human adenosine A1 receptors (Homo sapiens, UniProt P30542); test: Adenosine receptor binding: binding affinities at hA1 receptors ([3H]DPCPX displacement); conditions: Table 1; for Ki: [3H]DPCPX displacement, CHO-K1 membranes, read-out: Binding Affinity hA1-Ki; for Binding Selectivity A1/A2a: ratio of Ki values
T1 construct: expressed in transfected cells; host or cells: CHO-K1
T1 sequence (P30542 1-326): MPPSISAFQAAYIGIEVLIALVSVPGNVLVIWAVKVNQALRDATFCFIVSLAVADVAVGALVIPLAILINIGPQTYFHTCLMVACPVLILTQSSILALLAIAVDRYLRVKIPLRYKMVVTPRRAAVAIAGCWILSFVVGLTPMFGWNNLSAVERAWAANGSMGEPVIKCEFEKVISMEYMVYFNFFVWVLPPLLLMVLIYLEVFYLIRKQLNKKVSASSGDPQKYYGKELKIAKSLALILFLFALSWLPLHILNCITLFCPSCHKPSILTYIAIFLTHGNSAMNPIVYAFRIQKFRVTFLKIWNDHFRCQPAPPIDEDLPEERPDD
Procedure: Adenosine Receptor Binding: Binding Affinities at hA1 Receptors
The resultant homogenate was kept for immediate use in the binding.
(§1) Binding assays were performed in a total volume of 250 μL, containing [^3H]-DPCPX (3.0 nM), membranes and additional drugs. Total binding was determined using drug dilution buffer (50 mM Tris-HCl pH:7.5, 10 mM MgCl2, 5% DMSO). Non-specific binding was determined using 300 μM N6-cyclohexyladenosine (CHA). […] Filters were left to dry overnight, and Microscint-0 scintillation fluid was then added to the filters. The filters were then left for at least 2 hours before the radioactivity was assessed using a Canberra Packard TopCount microplate scintillation counter.
To determine the free ligand concentration, three vials were counted with 25 μL of [^3H]DPCPX containing 4 mL of Ultima-Gold MV scintillant on a Beckman LS6500 multi-purpose scintillation counter.
(§2) Data was analysed using a 4 parameter logistical equation and non-linear regression which yields affinity constants (pIC50), and slope parameters:
(§3) [formula] where E is the quantity of binding and [A] is the competitor concentration. The Ki is then determined using the Cheng-Prusoff equation: […]

[2] = target: T2, human adenosine A2A receptors (Homo sapiens, UniProt P29274); test: Adenosine receptor binding: binding affinities at hA2A receptors ([3H]CGS-21680 displacement); conditions: Table 1; [3H]CGS-21680 displacement, HEK-293 membranes; read-out: Binding Affinity hA2A-Ki
T2 construct: host or cells: HEK-293
T2 sequence (P29274 whole entry): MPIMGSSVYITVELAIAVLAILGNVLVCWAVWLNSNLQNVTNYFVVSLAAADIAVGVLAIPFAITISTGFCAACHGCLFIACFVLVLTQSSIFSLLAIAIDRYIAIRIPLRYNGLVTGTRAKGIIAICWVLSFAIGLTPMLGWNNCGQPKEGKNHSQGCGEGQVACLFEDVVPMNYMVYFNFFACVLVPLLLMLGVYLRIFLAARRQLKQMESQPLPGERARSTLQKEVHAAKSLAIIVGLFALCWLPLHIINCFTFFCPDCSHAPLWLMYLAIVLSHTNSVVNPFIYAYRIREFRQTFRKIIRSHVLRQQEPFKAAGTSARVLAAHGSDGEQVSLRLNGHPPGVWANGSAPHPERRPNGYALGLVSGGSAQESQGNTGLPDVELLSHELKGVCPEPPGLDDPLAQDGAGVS
Procedure: Adenosine Receptor Binding: Binding Affinities at hA2A Receptors
as §1, with “The resultant homogenate was kept for immediate use in the binding assay. Binding” for “Binding”, “[^3H]-CGS21680 (20.0” for “[^3H]-DPCPX (3.0”, “pH 7.5,” for “pH:7.5,”, “CHA.” for “N6-cyclohexyladenosine (CHA).”
To determine the free ligand concentration, three vials were counted with 25 μL of [^3H]CGS21680 containing 4 mL of Ultima-Gold MV scintillant on a Beckman LS6500 multi-purpose scintillation counter.
as §2, §3

hA2B receptors = target: T3, hA2B receptors (Homo sapiens, UniProt P29275); test: Adenosine receptor binding: binding affinities at hA2B receptors ([3H]-ZM241385 displacement); conditions: Table 1; for Ki: [3H]-ZM241385 displacement, HEK-293 membranes, read-out: Binding Affinity hA2B-Ki; for Binding Selectivity A2b/A2a: ratio of Ki values
T3 construct: host or cells: HEK-293
T3 sequence (P29275 1-332): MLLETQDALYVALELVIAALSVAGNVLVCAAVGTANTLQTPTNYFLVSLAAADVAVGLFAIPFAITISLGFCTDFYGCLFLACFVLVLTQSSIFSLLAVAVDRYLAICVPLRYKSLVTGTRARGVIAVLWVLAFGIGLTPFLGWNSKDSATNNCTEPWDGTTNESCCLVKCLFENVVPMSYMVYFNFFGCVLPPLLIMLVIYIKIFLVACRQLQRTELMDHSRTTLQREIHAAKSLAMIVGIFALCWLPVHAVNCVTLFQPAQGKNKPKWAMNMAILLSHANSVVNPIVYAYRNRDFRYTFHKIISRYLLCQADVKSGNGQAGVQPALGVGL

[3] = system: haloperidol-induced deficits in locomotor activity in mice; test: Haloperidol-induced hypolocomotion model (HaloLMA); type: in vivo; conditions: female TO mice, intraperitoneal, haloperidol 0.2 mg/kg
Excerpt: Evaluation of Potential Anti-Parkinsonian Activity In Vivo: Haloperidol-Induced Hypolocomotion Model
This approach is also considered a valid method for screening drugs with potential antiparkinsonian effects. Thus, the ability of novel adenosine antagonists to block haloperidol-induced deficits in locomotor activity in mice can be used to assess both in vivo and potential antiparkinsonian efficacy.
Female TO mice (25-30 g) are used for all experiments. Animals are housed in groups of 8 (cage size-40 cm (width) by 40 cm (length) by 20 cm (height)) under 12 hour light/dark cycle (lights on 08:00), in a temperature (20±2° C.) and humidity (55±15%) controlled environment. Animals have free access to food and water, and are allowed at least 7 days to acclimatize after delivery before experimental use.
Liquid injectable haloperidol (e.g., 1 mL Serenance ampoules from Baker Norton, Harlow, Essex, each containing haloperidol BP 5 mg) are diluted to a final concentration of 0.02 mg/mL using saline. Test compounds are typically prepared as aqueous suspensions in 8% Tween. All compounds are administered intraperitoneally in a volume of 10 mL/kg.
1.5 hours before testing, mice are administered 0.2 mg/kg haloperidol, a dose that reduces baseline locomotor activity by at least 50%. Test substances are typically administered 5-60 minutes prior to testing. The animals are then placed individually into clean, clear polycarbonate cages (20 cm (width) by 40 cm (length) by 20 cm (height), with a flat perforated, Perspex lid). Horizontal locomotor activity is determined by placing the cages within a frame containing a 3 by 6 array of photocells linked to a computer, which tabulates beam breaks. Mice are left undisturbed to explore for 1 hour, and the number of beams breaks made during this period serves as a record of locomotor activity which is compared with data for control animals for statistically significant differences.
A number of the exemplified compounds of the present invention were tested in this assay and the results obtained are shown in Table 3, below.

[4] = target: T4, human adenosine A3 receptors (Homo sapiens, UniProt P0DMS8); test: Adenosine receptor binding: binding affinities at hA3 receptors ([125I]-AB MECA displacement); conditions: Table 1; for Ki: [125I]-AB MECA displacement, CHO-K1 membranes, read-out: Binding Affinity hA3-Ki; for Binding Selectivity A3/A2a: ratio of Ki values
T4 construct: expressed in transfected cells; host or cells: CHO-K1
T4 sequence (P0DMS8 1-318): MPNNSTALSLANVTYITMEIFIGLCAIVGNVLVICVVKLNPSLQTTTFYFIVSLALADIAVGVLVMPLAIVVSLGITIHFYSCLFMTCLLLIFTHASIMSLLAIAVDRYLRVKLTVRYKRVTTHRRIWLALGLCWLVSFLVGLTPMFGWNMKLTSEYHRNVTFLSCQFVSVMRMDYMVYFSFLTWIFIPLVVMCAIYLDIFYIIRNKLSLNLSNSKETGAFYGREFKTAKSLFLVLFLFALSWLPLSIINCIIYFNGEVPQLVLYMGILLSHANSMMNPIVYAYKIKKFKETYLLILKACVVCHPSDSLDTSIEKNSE
Procedure: [formula] Adenosine Receptor Binding: Binding Affinities at hA3 Receptors
The resultant homogenate was kept for immediate use in the binding assay.
as §1, with “Total” for “Binding assays were performed in a total volume of 250 μL, containing [^3H]-DPCPX (3.0 nM), membranes and additional drugs. Total”, “pH 7.5,” for “pH:7.5,”, “10” for “300”, “IB-MECA.” for “N6-cyclohexyladenosine (CHA).”
as §2, §3

SMILES	Ki [1]	Binding Selectivity A1/A2a [1]	Ki [2]	Ki (hA2B receptors)	Binding Selectivity A2b/A2a (hA2B receptors)	In Vivo activity HaloLMA MED [3]	Ki [4]	Binding Selectivity A3/A2a [4]
Cc1ccc(-c2nc(N)nc3c2nnn3Cc2cccc(C(C)(C)O)n2)o1 [Example 2, 7-(5-methylfuran-2-yl)-3-(6-[1-hydroxy-1-methylethyl]pyrid-2-ylmethyl)-3H-[1,2,3]triazolo[4,5-d]pyrimidin-5-amine]	360 nM	192	1.9 nM	2190 nM	1165	1 mg/kg	706 nM	375
Cc1ccc(-c2nc(N)nc3c2nnn3Cc2cccc(C3(O)CCCC3)n2)o1 [Example 3, 7-(5-methylfuran-2-yl)-3-(6-[1-hydroxy-1-cyclopentyl]pyrid-2-ylmethyl)-3H-[1,2,3]triazolo[4,5-d]pyrimidin-5-amine]	366 nM	226	1.6 nM	976 nM	602	1 mg/kg	754 nM	465
Cc1ccc(-c2nc(N)nc3c2nnn3Cc2cccc(C3(O)CCCCC3)n2)o1 [Example 4, 7-(5-methylfuran-2-yl)-3-(6-[1-hydroxy-1-cyclohexyl]pyrid-2-ylmethyl)-3H-[1,2,3]triazolo[4,5-d]pyrimidin-5-amine]	196 nM	63	3.1 nM	1130 nM	366	3 mg/kg	1640 nM	528
Cc1ccc(-c2nc(N)nc3c2nnn3Cc2cccc(C3(O)CCOCC3)n2)o1 [Example 5, 7-(5-methylfuran-2-yl)-3-(6-[4-hydroxyetrahydropyran-4-yl]pyrid-2-ylmethyl)-3H-[1,2,3]triazolo[4,5-d]pyrimidin-5-amine]	853 nM	199	4.3 nM	4200 nM	980	3 mg/kg		1989
Cc1ccc(-c2nc(N)nc3c2nnn3Cc2cccc(C3(O)CCC3)n2)o1 [Example 6]	354 nM	313	1.1 nM	1370 nM	1216	1 mg/kg	1500 nM	1326
CC(C)(O)c1cccc(Cn2nnc3c(-c4ccccc4)nc(N)nc32)n1 [Example 8, 7-phenyl-3-(6-[1-hydroxy-1-methylethyl]pyrid-2-ylmethyl)-3H-[1,2,3]triazolo[4,5-d]pyrimidin-5-amine]	214 nM	44	4.8 nM	1300 nM	269	3 mg/kg	3760 nM	780
Nc1nc(-c2ccccc2)c2nnn(Cc3cccc(C4(O)CCCC4)n3)c2n1 [Example 9, 7-phenyl-3-(6-[1-hydroxy-1-cyclopentyl]pyrid-2-ylmethyl)-3H-[1,2,3]triazolo[4,5-d]pyrimidin-5-amine]	706 nM	72	9.8 nM	3410 nM	347	10 mg/kg		
COCc1cccc(Cn2nnc3c(-c4cccc(OC)c4)nc(N)nc32)n1 [Example 18, 7-(3-methoxyphenyl)-3-(6-[methoxymethyl]pyrid-2-ylmethyl)-3H-[1,2,3]triazolo[4,5-d]pyrimidin-5-amine]						<30 mg/kg		
COCc1cccc(Cn2nnc3c(-c4cccc(C#N)c4)nc(N)nc32)n1 [Example 24, 7-(3-cyanophenyl)-3-(6-[methoxymethyl]pyrid-2-ylmethyl)-3H-[1,2,3]triazolo[4,5-d]pyrimidin-5-amine]						10 mg/kg		
Cc1csc(-c2nc(N)nc3c2nnn3Cc2cccc(CO[C@H]3CCOC3)n2)n1 [Example 25, S-7-(4-methylthiazol-2-yl)-3-(6-[tetrahydrofuran-3-yl]oxymethylpyrid-2-ylmethyl)-3H-[1,2,3]triazolo[4,5-d]pyrimidin-5-amine]						3 mg/kg		
COC(C)(C)OCc1cccc(Cn2nnc3c(-c4ccc(C)o4)nc(N)nc32)n1 [Example 36, 7-(5-methylfuran-2-yl)-3-(6-[1-methoxy-1-methylethyl]oxymethylpyrid-2-ylmethyl)-3H-[1,2,3]triazolo[4,5-d]pyrimidin-5-amine]	422 nM	93	4.5 nM			1 to 3 mg/kg	939 nM	208
Nc1nc(-c2nccs2)c2nnn(Cc3cccc(CO[C@H]4CCOC4)n3)c2n1 [Example 38, S-7-(thiazol-2-yl)-3-(6-[tetrahydrofuran-3-yl]oxymethylpyrid-2-ylmethyl)-3H-[1,2,3]triazolo[4,5-d]pyrimidin-5-amine]	2090 nM	73	28.4 nM	2980 nM	105	10 mg/kg		
